Data taken from PMC10590383, “Repurposing conformational changes in ANL superfamily enzymes to rapidly generate biosensors for organic and amino acids” (Nature Communications, 2023).

Assay: Dose–response curve of purified […]s with phenylalanine
Assay type: biochemical
Method: Fig. 3 Dose–response curves and fluorescence spectrums of […]s. a, c, e, g, i, k Dose–response curve of purified […]s with increasing concentrations of ligand in 100 mM Tris-HCl buffer (pH=7.5). The normalized ΔF/F0 value increased after ligand binding. All data shown are mean ± S.D. (n = 3 biologically independent samples). b, d, f, h, j, l The fluorescence spectra of […]s changed as the ligand concentration increased. All data shown are mean ± S.D. (n = 3 biologically independent samples). Source data are provided as a Source data file.
Fig. 4 Engineering ligand specificity of GrsA-PheA for generating […]s. a The selectivity-conferring code of Phe and Leu A domains. b–f Dose–response curve of purified […]s with increasing concentrations of ligands in 100 mM Tris-HCl buffer (pH=7.5). All data shown are means ± S.D. (n = 3 biologically independent samples). g A series of […] reactions was tested to show the […]’s specificity with 20 proteinogenic amino acids. The values on the heatmap represent the ΔF/F0 value normalized to each […]’s maximal ΔF/F0 value ((ΔF/F0)/maximal ΔF/F0). The concentrations of 20 amino acids were 100 μM. The color indicates the average value of three independent biological replicates after 15 min. All data shown are means ± S.D. (n = 3 biologically independent samples). Source data are provided as a Source data file.
The study conducted dose–response curve, substrate specificity, and fluorescent spectrum analyses in 100-mM Tris buffer (pH = 7.5), while pH stability experiments were performed in 100-mM Tris buffer at three different pH values (6.5, 7.5, and 8.5) at room temperature. […] protein at a concentration of 0.75 μM, various small molecule concentrations, 1 mM ATP, and 2.5 mM MgCl2 were used in the experiments. Fluorescent signals were detected using a Microplate Reader (Synergy H4, Bio Tek) at an excitation/emission wavelength of 460 nm/510 nm or 480 nm/510 nm. The dose-response curve was determined immediately after the addition of the analyte. The total duration of the measurement was 15 min, with readings taken at one-minute intervals. The dose-response curve was plotted using the fluorescence values obtained after achieving stability in the fluorescence signal. The dose-response curves were fitted using the logistic model LOGISTIC5 available in Origin 2021, which could provide a more adequate fit to asymmetric dose-response data[62],[63]. Excitation spectra were scanned from 300 to 540 nm with a step size of 5 nm, and the emission wavelength was set to 560 nm. Emission spectra were scanned from 470 to 700 nm with a step size of 5 nm, and the excitation wavelength was set to 450 nm. The thermal stability of […] was analyzed using the UNcle multifunctional protein stability analysis system. Measurements were performed in 20 mM MOPS buffer with 2 mM DTT at a sample concentration of 1 mg/mL. Absolute fluorescence quantum yields were measured using an absolute photoluminescence quantum yield spectrometer (FS5, Edinburgh).

N[C@@H](Cc1ccccc1)C(=O)O [Phe]
AVE, dose-response Fig. 4 b (substrate Phe 0.001 μM): 0 | AVE, dose-response Fig. 4 b (substrate Phe 0.005 μM): 0.04668 | AVE, dose-response Fig. 4 b (substrate Phe 0.01 μM): 0.05356 | AVE, dose-response Fig. 4 b (substrate Phe 0.05 μM): 0.1413 | AVE, dose-response Fig. 4 b (substrate Phe 0.1 μM): 0.2634 | AVE, dose-response Fig. 4 b (substrate Phe 0.5 μM): 0.9215 | AVE, dose-response Fig. 4 b (substrate Phe 1 μM): 1.384 | AVE, dose-response Fig. 4 b (substrate Phe 5 μM): 2.412 | AVE, dose-response Fig. 4 b (substrate Phe 10 μM): 2.788 | AVE, dose-response Fig. 4 b (substrate Phe 25 μM): 3.108 | AVE, dose-response Fig. 4 b (substrate Phe 50 μM): 3.25 | AVE, dose-response Fig. 4 b (substrate Phe 100 μM): 3.385 | AVE, dose-response Fig. 4 c (substrate Phe 0.5 μM): 0 | AVE, dose-response Fig. 4 c (substrate Phe 1 μM): 0.02176 | AVE, dose-response Fig. 4 c (substrate Phe 2 μM): 0.04684 | AVE, dose-response Fig. 4 c (substrate Phe 5 μM): 0.0476 | AVE, dose-response Fig. 4 c (substrate Phe 10 μM): 0.102 | AVE, dose-response Fig. 4 c (substrate Phe 20 μM): 0.1609 | AVE, dose-response Fig. 4 c (substrate Phe 50 μM): 0.1914 | AVE, dose-response Fig. 4 c (substrate Phe 100 μM): 0.2096 | AVE, dose-response Fig. 4 c (substrate Phe 200 μM): 0.2332 | AVE, dose-response Fig. 4 c (substrate Phe 500 μM): 0.2962 | AVE, dose-response Fig. 4 c (substrate Phe 750 μM): 0.3509 | AVE, dose-response Fig. 4 c (substrate Phe 1000 μM): 0.2649 | AVE, dose-response Fig. 4 e (substrate Phe 0.1 μM): -6.4763e-17 | AVE, dose-response Fig. 4 e (substrate Phe 0.2 μM): 0.02607 | AVE, dose-response Fig. 4 e (substrate Phe 1 μM): 0.02065 | AVE, dose-response Fig. 4 e (substrate Phe 2 μM): 0.01654 | AVE, dose-response Fig. 4 e (substrate Phe 10 μM): 0.06065 | AVE, dose-response Fig. 4 e (substrate Phe 20 μM): 0.08275 | AVE, dose-response Fig. 4 e (substrate Phe 100 μM): 0.1347 | AVE, dose-response Fig. 4 e (substrate Phe 200 μM): 0.2309 | AVE, dose-response Fig. 4 e (substrate Phe 500 μM): 0.3796 | AVE, dose-response Fig. 4 e (substrate Phe 1000 μM): 0.4613 | AVE, dose-response Fig. 4 e (substrate Phe 1500 μM): 0.4963 | AVE, dose-response Fig. 4 e (substrate Phe 2000 μM): 0.5161 | AVE, dose-response Fig. 4 f (substrate Phe 0.0001 μM): -0.000122 | AVE, dose-response Fig. 4 f (substrate Phe 0.001 μM): 0.002395 | AVE, dose-response Fig. 4 f (substrate Phe 0.01 μM): 0.009697 | AVE, dose-response Fig. 4 f (substrate Phe 0.1 μM): 0.01529 | AVE, dose-response Fig. 4 f (substrate Phe 1 μM): -0.009047 | AVE, dose-response Fig. 4 f (substrate Phe 10 μM): 0.009571 | AVE, dose-response Fig. 4 f (substrate Phe 50 μM): 0.1062 | AVE, dose-response Fig. 4 f (substrate Phe 100 μM): 0.2173 | AVE, dose-response Fig. 4 f (substrate Phe 500 μM): 0.5047 | AVE, dose-response Fig. 4 f (substrate Phe 1000 μM): 0.643 | AVE, dose-response Fig. 4 f (substrate Phe 5000 μM): 0.6763 | AVE, dose-response Fig. 4 f (substrate Phe 10000 μM): 0.7368 | AVE, dose-response Fig. 4 d (substrate Phe 0.01 μM): 0.02814 | AVE, dose-response Fig. 4 d (substrate Phe 0.1 μM): 0.03519 | AVE, dose-response Fig. 4 d (substrate Phe 1 μM): 0.04924 | AVE, dose-response Fig. 4 d (substrate Phe 5 μM): 0.06403 | AVE, dose-response Fig. 4 d (substrate Phe 10 μM): 0.08037 | AVE, dose-response Fig. 4 d (substrate Phe 50 μM): 0.1108 | AVE, dose-response Fig. 4 d (substrate Phe 100 μM): 0.1713 | AVE, dose-response Fig. 4 d (substrate Phe 200 μM): 0.2373 | AVE, dose-response Fig. 4 d (substrate Phe 500 μM): 0.3495 | AVE, dose-response Fig. 4 d (substrate Phe 750 μM): 0.3806 | AVE, dose-response Fig. 4 d (substrate Phe 1000 μM): 0.3842 | fluorescence response of GECFINDER, AVE of 3 repeats (Supplementary Fig. 3 a, Phe 0.001 μM): 0 | fluorescence response of GECFINDER, AVE of 3 repeats (Supplementary Fig. 3 a, Phe 0.005 μM): 0.03394 | fluorescence response of GECFINDER, AVE of 3 repeats (Supplementary Fig. 3 a, Phe 0.01 μM): 0.09128 | fluorescence response of GECFINDER, AVE of 3 repeats (Supplementary Fig. 3 a, Phe 0.1 μM): 0.1211 | fluorescence response of GECFINDER, AVE of 3 repeats (Supplementary Fig. 3 a, Phe 1 μM): 0.1406 | fluorescence response of GECFINDER, AVE of 3 repeats (Supplementary Fig. 3 a, Phe 10 μM): 0.1472 | fluorescence response of GECFINDER, AVE of 3 repeats (Supplementary Fig. 3 a, Phe 50 μM): 0.1578 | fluorescence response of GECFINDER, AVE of 3 repeats (Supplementary Fig. 3 a, Phe 100 μM): 0.198 | fluorescence response of GECFINDER, AVE of 3 repeats (Supplementary Fig. 3 a, Phe 500 μM): 0.3919 | fluorescence response of GECFINDER, AVE of 3 repeats (Supplementary Fig. 3 a, Phe 1000 μM): 0.5221 | fluorescence response of GECFINDER, AVE of 3 repeats (Supplementary Fig. 3 a, Phe 5000 μM): 0.7757 | fluorescence response of GECFINDER, AVE of 3 repeats (Supplementary Fig. 3 a, Phe 10000 μM): 0.7576 | fluorescence response of GECFINDER, AVE of 3 repeats (Supplementary Fig. 3 b, Phe 0.001 μM): -4.337e-17 | fluorescence response of GECFINDER, AVE of 3 repeats (Supplementary Fig. 3 b, Phe 0.005 μM): 0.01069 | fluorescence response of GECFINDER, AVE of 3 repeats (Supplementary Fig. 3 b, Phe 0.01 μM): -0.003867 | fluorescence response of GECFINDER, AVE of 3 repeats (Supplementary Fig. 3 b, Phe 0.1 μM): 0.001408 | fluorescence response of GECFINDER, AVE of 3 repeats (Supplementary Fig. 3 b, Phe 1 μM): 0.04065 | fluorescence response of GECFINDER, AVE of 3 repeats (Supplementary Fig. 3 b, Phe 10 μM): 0.112 | fluorescence response of GECFINDER, AVE of 3 repeats (Supplementary Fig. 3 b, Phe 50 μM): 0.2916 | fluorescence response of GECFINDER, AVE of 3 repeats (Supplementary Fig. 3 b, Phe 100 μM): 0.4046 | fluorescence response of GECFINDER, AVE of 3 repeats (Supplementary Fig. 3 b, Phe 500 μM): 0.8587 | fluorescence response of GECFINDER, AVE of 3 repeats (Supplementary Fig. 3 b, Phe 1000 μM): 1.065 | fluorescence response of GECFINDER, AVE of 3 repeats (Supplementary Fig. 3 b, Phe 5000 μM): 1.452 | fluorescence response of GECFINDER, AVE of 3 repeats (Supplementary Fig. 3 b, Phe 10000 μM): 1.455
